Laboratory results published in PubChem BioAssay AID192 (DTP/NCI, 2004).
“And” between values parts separate entries of the source, which are not always exact repeats. Equal entries are not always repeated. Toxic doses and inconclusive results are not listed. How the source made its calls: active means survival T/C of 150% or more; inactive means T/C below 125% in these data.

System: BDF1 mice, B16 melanoma ip, median survival T/C
Assay: NCI In Vivo Anticancer Drug Screen. Data for tumor model B16 Melanoma (intraperitoneal) in B6D2F1 (BDF1) mice
Conditions: endpoint: median survival time, higher = longer survival
Method in brief: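 Mice with transplantable tumors; drug vs vehicle groups; endpoint survival or tumor size; value = T/C.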

[1] = dose: 100.0 mg/kg/injection, schedule: Q01DX009 (ip), vehicle: Klucel (hydroxypropylcellulose) (HPC)
[2] = dose: 200.0 mg/kg/injection, schedule: Q01DX009 (ip), vehicle: Klucel (hydroxypropylcellulose) (HPC)
[3] = dose: 400.0 mg/kg/injection, schedule: Q01DX009 (ip), vehicle: Klucel (hydroxypropylcellulose) (HPC)
[4] = dose: 12.5 mg/kg/injection, schedule: Q01DX009 (ip), vehicle: saline
[5] = dose: 12.5 mg/kg/injection, schedule: Q01DX009 (ip), vehicle: saline with Tween-80
[6] = dose: 25.0 mg/kg/injection, schedule: Q01DX009 (ip), vehicle: saline with Tween-80
[7] = dose: 50.0 mg/kg/injection, schedule: Q01DX009 (ip), vehicle: saline with Tween-80
[8] = dose: 50.0 mg/kg/injection, schedule: Q01DX009 (ip), vehicle: Klucel (hydroxypropylcellulose) (HPC)
[9] = dose: 6.25 mg/kg/injection, schedule: Q01DX009 (ip), vehicle: Klucel (hydroxypropylcellulose) (HPC)
[10] = dose: 12.5 mg/kg/injection, schedule: Q01DX009 (ip), vehicle: Klucel (hydroxypropylcellulose) (HPC)
[11] = dose: 25.0 mg/kg/injection, schedule: Q01DX009 (ip), vehicle: Klucel (hydroxypropylcellulose) (HPC)
[12] = dose: 1.56 mg/kg/injection, schedule: Q01DX009 (ip), vehicle: Klucel (hydroxypropylcellulose) (HPC)
[13] = dose: 3.12 mg/kg/injection, schedule: Q01DX009 (ip), vehicle: Klucel (hydroxypropylcellulose) (HPC)

Measured: T/C

CCC1=C(C[C@H]2NCCc3cc(OC)c(OC)cc32)C[C@H]2c3cc(OC)c(OC)cc3CCN2C1
inactive: dose: 2.0 mg/kg/injection, schedule: Q01DX009 (ip), vehicle: Klucel (hydroxypropylcellulose) (HPC) 114 % of control | dose: 2.0 mg/kg/injection, schedule: Q01DX009 (ip), vehicle: saline 103 % of control and 111 % of control | dose: 4.0 mg/kg/injection, schedule: Q01DX009 (ip), vehicle: saline 106 % of control and 107 % of control | dose: 5.0 mg/kg/injection, schedule: Q01DX005 (ip), vehicle: saline 118 % of control | dose: 5.0 mg/kg/injection, schedule: Q01DX009 (ip), vehicle: Klucel (hydroxypropylcellulose) (HPC) 116 % of control

CCn1c(O)c(C=N)c(=O)n(CC)c1=O
inactive: dose: 150.0 mg/kg/injection, schedule: Q04DX003 (ip), vehicle: Klucel (hydroxypropylcellulose) (HPC) 90 % of control

CCCCCCCCCCCC(=O)CCC
inactive: [1] 93 % of control | [2] 91 % of control | [3] 90 % of control

NC1=C(N2CC2)C(=O)C(N)=C(N2CC2)C1=O
inactive: dose: 6.0 micrograms/kg/injection, schedule: Q01DX009 (ip), vehicle: saline 112 % of control | dose: 12.5 micrograms/kg/injection, schedule: Q01DX009 (ip), vehicle: saline 112 % of control | dose: 25.0 micrograms/kg/injection, schedule: Q01DX009 (ip), vehicle: saline 105 % of control | dose: 50.0 micrograms/kg/injection, schedule: Q01DX009 (ip), vehicle: saline 120 % of control | dose: 200.0 micrograms/kg/injection, schedule: Q01DX009 (ip), vehicle: saline 124 % of control

CN(C)CCCN1c2ccccc2S(=O)c2ccc(Cl)cc21 (centres undefined)
inactive: [4] 97 % of control | dose: 25.0 mg/kg/injection, schedule: Q01DX009 (ip), vehicle: saline 100 % of control | dose: 50.0 mg/kg/injection, schedule: Q01DX009 (ip), vehicle: saline 108 % of control | dose: 100.0 mg/kg/injection, schedule: Q01DX009 (ip), vehicle: saline 94 % of control

O=[N+]([O-])c1cc2c(c([N+](=O)[O-])c1)OCOC2
inactive: [2] 100 % of control

O=S(=O)(O)C(Nc1ccccc1)c1ccccc1 (centres undefined)
inactive: dose: 100.0 mg/kg/injection, schedule: Q01DX009 (ip), vehicle: saline sonified 93 % of control | dose: 200.0 mg/kg/injection, schedule: Q01DX009 (ip), vehicle: saline sonified 93 % of control | dose: 400.0 mg/kg/injection, schedule: Q01DX009 (ip), vehicle: saline sonified 102 % of control

CC1(O)C=CC(=O)C=C1
inactive: dose: 6.25 mg/kg/injection, schedule: Q01DX009 (ip), vehicle: water 110 % of control | dose: 12.5 mg/kg/injection, schedule: Q01DX009 (ip), vehicle: water 116 % of control | dose: 25.0 mg/kg/injection, schedule: Q01DX009 (ip), vehicle: water 120 % of control | dose: 50.0 mg/kg/injection, schedule: Q01DX009 (ip), vehicle: water 114 % of control

Nc1ncnc2c1c(C(=O)O)cn2C1OC(CO)C(O)C1O (centres undefined)
inactive: [5] 91 % of control | [6] 93 % of control | [7] 96 % of control

COc1ccc(NC(=O)Nc2ccc(Cl)cc2C)cc1
inactive: dose: 100.0 mg/kg/injection, schedule: Q01DX009 (sc), vehicle: olive oil, sesame oil, peanut oil 101 % of control | dose: 200.0 mg/kg/injection, schedule: Q01DX009 (sc), vehicle: olive oil, sesame oil, peanut oil 111 % of control | dose: 400.0 mg/kg/injection, schedule: Q01DX009 (sc), vehicle: olive oil, sesame oil, peanut oil 103 % of control

Cc1ccc(S(=O)(=O)N2CCn3ncc(C#N)c32)cc1
inactive: [8] 100 % of control | [1] 103 % of control | [2] 103 % of control | [3] 96 % of control

CN(N)P(=S)(c1ccccc1)N(C)N
inactive: [9] 106 % of control | [10] 103 % of control

COc1cc([C@@H]2c3cc4c(c(O)c3C[C@H]3COC(=O)[C@@H]32)OCO4)cc(OC)c1O
inactive: dose: 0.12 mg/kg/injection, schedule: Q01DX009 (ip), vehicle: saline 97 % of control | dose: 0.12 mg/kg/injection, schedule: Q01DX009 (ip), vehicle: suspension in saline 100 % of control | dose: 0.25 mg/kg/injection, schedule: Q01DX009 (ip), vehicle: saline 97 % of control | dose: 0.25 mg/kg/injection, schedule: Q01DX009 (ip), vehicle: suspension in saline 96 % of control | dose: 0.5 mg/kg/injection, schedule: Q01DX009 (ip), vehicle: saline 107 % of control | dose: 0.5 mg/kg/injection, schedule: Q01DX009 (ip), vehicle: suspension in saline 105 % of control | dose: 1.0 mg/kg/injection, schedule: Q01DX009 (ip), vehicle: saline 95 % of control

CCC1OC(=O)CC(O)C(C)C(OC2OC(C)C(O)C(N(C)C)C2O)C(CC=O)CC(C)C(=O)/C=C/C2(C)OC2C1C (centres undefined)
inactive: [10] 96 % of control | [11] 97 % of control | [8] 98 % of control | [1] 88 % of control

Cc1ccc(NC(=O)Nc2cccc(Cl)c2)cc1C
inactive: [1] 86 % of control | dose: 100.0 mg/kg/injection, schedule: Q04DX003 (ip), vehicle: Klucel (hydroxypropylcellulose) (HPC) 92 % of control | [2] 86 % of control | dose: 200.0 mg/kg/injection, schedule: Q04DX003 (ip), vehicle: Klucel (hydroxypropylcellulose) (HPC) 92 % of control | [3] 86 % of control | dose: 400.0 mg/kg/injection, schedule: Q04DX003 (ip), vehicle: Klucel (hydroxypropylcellulose) (HPC) 92 % of control

S=C=NCCc1ccccc1
inactive: [5] 111 % of control | [6] 114 % of control | [7] 96 % of control

CCOC(=O)N1CCc2nc3ccc(Cl)cc3cc21
inactive: [6] 113 % of control | [7] 111 % of control | dose: 100.0 mg/kg/injection, schedule: Q01DX009 (ip), vehicle: saline with Tween-80 124 % of control | dose: 200.0 mg/kg/injection, schedule: Q01DX009 (ip), vehicle: saline with Tween-80 106 % of control

[Cl][Pd]([Cl])([Cl])[Cl]
inactive: dose: 6.25 mg/kg/injection, schedule: Q01DX009 (ip), vehicle: saline 103 % of control | [4] 92 % of control

Cc1ccc(C(=O)[O][Hg][CH2]C2COC([CH2][Hg][O]C(=O)c3ccc(C)cc3)CO2)cc1 (centres undefined)
inactive: dose: 0.09 mg/kg/injection, schedule: Q01DX009 (ip), vehicle: Klucel (hydroxypropylcellulose) (HPC) 92 % of control | dose: 0.19 mg/kg/injection, schedule: Q01DX009 (ip), vehicle: Klucel (hydroxypropylcellulose) (HPC) 87 % of control | dose: 0.39 mg/kg/injection, schedule: Q01DX009 (ip), vehicle: Klucel (hydroxypropylcellulose) (HPC) 99 % of control | dose: 0.78 mg/kg/injection, schedule: Q01DX009 (ip), vehicle: Klucel (hydroxypropylcellulose) (HPC) 100 % of control | [12] 100 % of control | [13] 94 % of control and 106 % of control | [9] 92 % of control and 107 % of control | [10] 94 % of control and 99 % of control | [11] 94 % of control and 96 % of control | [8] 89 % of control and 94 % of control

O=c1[nH]c2ccccc2n1C1CCN(CCCC(c2ccc(F)cc2)c2ccc(F)cc2)CC1
inactive: [12] 102 % of control | [13] 100 % of control | [9] 100 % of control | [10] 94 % of control | [11] 105 % of control | [8] 87 % of control | [1] 87 % of control

Cc1cc(C)c(OCC2CO2)c(C)c1 (centres undefined)
inactive: [1] 103 % of control | [2] 96 % of control | [3] 90 % of control
